According to PubChem BioAssay (NCI):
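Each compound was tested at five concentrations against cells in 96-well plates for 48 hours. TGI is the concentration that stops growth completely.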

Assays:
Experiment in all cases: DTP human tumour cell line panel, 48 h
[1] = system: OVCAR-4 ovarian
[2] = system: SF-539 CNS
[3] = system: HCT-116 colon
[4] = system: UACC-62 melanoma
[5] = system: BT-549 breast
[6] = system: MCF7 breast
[7] = system: T-47D breast
[8] = system: K-562 leukemia
[9] = system: 786-0 renal
[10] = system: PC-3 prostate
[11] = system: MOLT-4 leukemia
[12] = system: CAKI-1 renal
[13] = system: A549 NSCLC
[14] = system: SNB-19 CNS
[15] = system: UACC-257 melanoma
[16] = system: NCI-H23 lung
[17] = system: SK-MEL-28 melanoma
[18] = system: ACHN renal
[19] = system: U251 CNS
[20] = system: TK-10 renal
[21] = system: SW-620 colon
[22] = system: MDA-MB-231 breast
[23] = system: OVCAR-5 ovarian
[24] = system: SF-268 CNS
[25] = system: NCI-H460 lung
[26] = system: SF-295 CNS
[27] = system: SNB-75 CNS
[28] = system: A498 renal
[29] = system: SN12C renal
[30] = system: NCI-H522 lung
[31] = system: COLO 205 colon
[32] = system: EKVX NSCLC
[33] = system: KM12 colon
[34] = system: HS 578T breast
[35] = system: HT29 colon
[36] = system: UO-31 renal
[37] = system: M14 melanoma
[38] = system: MDA-MB-435
[39] = system: LOX IMVI melanoma
[40] = system: HOP-92 NSCLC
[41] = system: SK-MEL-5 melanoma
[42] = system: HCC-2998 colon
[43] = system: CCRF-CEM leukemia
[44] = system: MDA-N
[45] = system: SK-MEL-2 melanoma
[46] = system: HL-60(TB) leukemia
[47] = system: HCT-15 colon
[48] = system: NCI-H226 lung
[49] = system: IGROV1 ovarian
[50] = system: OVCAR-8 ovarian
[51] = system: NCI/ADR-RES ovarian
[52] = system: RPMI-8226 leukemia
[53] = system: SK-OV-3 ovarian
[54] = system: DU-145 prostate
[55] = system: OVCAR-3 ovarian
[56] = system: HOP-62 NSCLC
[57] = system: MALME-3M melanoma

Compound: COc1ccc(NC(=O)C(=O)C(CC2C(=O)NC(=S)NC2=O)C(=O)c2ccc3ccccc3c2)c([N+](=O)[O-])c1 (stereo not given)
- TGI [1]: > 100 µM
- TGI [2]: > 100 µM
- TGI [3]: > 100 µM
- TGI [4]: > 100 µM
- TGI [5]: > 100 µM
- TGI [6]: > 100 µM
- TGI [7]: > 100 µM
- TGI [8]: > 100 µM
- TGI [9]: > 100 µM
- TGI [10]: > 100 µM
- TGI [11]: > 100 µM
- TGI [12]: > 100 µM
- TGI [13]: > 100 µM
- TGI [14]: > 100 µM
- TGI [15]: > 100 µM
- TGI [16]: > 100 µM
- TGI [17]: > 100 µM
- TGI [18]: > 100 µM
- TGI [19]: > 100 µM
- TGI [20]: > 100 µM
- TGI [21]: > 100 µM
- TGI [22]: > 100 µM
- TGI [23]: > 100 µM
- TGI [24]: > 100 µM
- TGI [25]: > 100 µM
- TGI [26]: > 100 µM
- TGI [27]: > 100 µM
- TGI [28]: > 100 µM
- TGI [29]: > 100 µM
- TGI [30]: > 100 µM
- TGI [31]: > 100 µM
- TGI [32]: > 100 µM
- TGI [33]: > 100 µM
- TGI [34]: > 100 µM
- TGI [35]: > 100 µM
- TGI [36]: > 100 µM
- TGI [37]: > 100 µM
- TGI [38]: > 100 µM
- TGI [39]: > 100 µM
- TGI [40]: > 100 µM
- TGI [41]: > 100 µM
- TGI [42]: > 100 µM
- TGI [43]: > 100 µM
- TGI [44]: > 100 µM
- TGI [45]: > 100 µM
- TGI [46]: > 100 µM
- TGI [47]: > 100 µM
- TGI [48]: > 100 µM
- TGI [49]: > 100 µM
- TGI [50]: > 100 µM
- TGI [51]: > 100 µM
- TGI [52]: > 100 µM
- TGI [53]: > 100 µM
- TGI [54]: > 100 µM
- TGI [55]: > 100 µM

Compound: Cn1c(=O)n(-c2c3ccccc3c(Cl)c3ccccc23)n(C(C)(C)C)c1=O
- TGI [2]: > 100 µM
- TGI [3]: > 100 µM
- TGI [4]: > 100 µM
- TGI [5]: > 100 µM
- TGI [6]: > 100 µM
- TGI [7]: > 100 µM
- TGI [8]: > 100 µM
- TGI [9]: > 100 µM
- TGI [10]: > 100 µM
- TGI [11]: > 100 µM
- TGI [12]: > 100 µM
- TGI [13]: > 100 µM
- TGI [14]: > 100 µM
- TGI [15]: > 100 µM
- TGI [16]: > 100 µM
- TGI [17]: > 100 µM
- TGI [18]: > 100 µM
- TGI [19]: > 100 µM
- TGI [20]: > 100 µM
- TGI [21]: > 100 µM
- TGI [22]: > 100 µM
- TGI [23]: > 100 µM
- TGI [24]: > 100 µM
- TGI [25]: > 100 µM
- TGI [26]: > 100 µM
- TGI [27]: 43.9 µM
- TGI [28]: > 100 µM
- TGI [56]: > 100 µM
- TGI [29]: > 100 µM
- TGI [30]: > 100 µM
- TGI [31]: > 100 µM
- TGI [32]: > 100 µM
- TGI [33]: > 100 µM
- TGI [34]: > 100 µM
- TGI [35]: > 100 µM
- TGI [36]: > 100 µM
- TGI [37]: > 100 µM
- TGI [38]: > 100 µM
- TGI [39]: > 100 µM
- TGI [40]: > 100 µM
- TGI [41]: > 100 µM
- TGI [42]: > 100 µM
- TGI [43]: > 100 µM
- TGI [44]: > 100 µM
- TGI [45]: > 100 µM
- TGI [46]: > 100 µM
- TGI [47]: > 100 µM
- TGI [48]: > 100 µM
- TGI [49]: > 100 µM
- TGI [50]: > 100 µM
- TGI [57]: > 100 µM
- TGI [51]: > 100 µM
- TGI [53]: > 100 µM
- TGI [54]: > 100 µM
- TGI [55]: > 100 µM
